Test results as given in patent US8710198B2, “Caprazene as a novel compound and derivatives thereof, and caprazol as a novel compound and derivatives thereof” (Meiji Seika Pharma Co., Ltd., priority 2003, dated 2014).

Experiments:
bacteria = test: Antibacterial activity; assay type: cell-based; details: statement in words
enzyme MraY = enzyme MraY (Escherichia coli, UniProt P0A6W3); details: statement in words
Sequence of enzyme MraY (P0A6W3 whole entry): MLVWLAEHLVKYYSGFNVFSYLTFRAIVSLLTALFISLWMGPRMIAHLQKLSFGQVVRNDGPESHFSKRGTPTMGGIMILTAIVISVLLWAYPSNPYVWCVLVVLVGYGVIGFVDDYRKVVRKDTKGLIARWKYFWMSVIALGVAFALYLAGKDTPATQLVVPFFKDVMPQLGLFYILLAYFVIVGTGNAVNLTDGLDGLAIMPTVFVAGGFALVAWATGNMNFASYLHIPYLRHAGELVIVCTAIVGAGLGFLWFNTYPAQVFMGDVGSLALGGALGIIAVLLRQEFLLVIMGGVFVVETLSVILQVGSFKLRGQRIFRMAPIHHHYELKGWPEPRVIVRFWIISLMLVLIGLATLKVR

CN1C[C@H](O)[C@@H](C(=O)O)N(C)C(=O)[C@@H]1[C@H](O[C@@H]1O[C@H](CN)[C@@H](O)[C@H]1O)[C@H]1O[C@@H](n2ccc(=O)[nH]c2=O)[C@H](O)[C@@H]1O [caprazol]
antibacterial activity (bacteria): no antibacterial activity
inhibitory activity against enzyme MraY (enzyme MraY): inhibitory activity against enzyme MraY
